We go through 3 molecules from patent US7435754B2, “Laulimalide microtubule stabilizing agents” (Utah State University, priority 2000, dated 2008).

Experiment [1] concerns A-10 cells. Put plainly: Micronuclei formation, DAPI staining. To be noted: for effect on nuclear structure: A-10 and SK-OV-3 cells, wide range of concentrations; for cells exhibiting micronuclei: A-10 cells, 0.02-2 μM, 18 hours. The class given is cell-based, rat. Here is the method:
FIG. 1 is a graphic representation comparing the effects of Laulimalide and paclitaxel on micronuclei formation, in which A-10 cells were treated for 18 hours with Laulimalide or paclitaxel, the cells were fixed and nuclei were visualized by DAPI staining;
(§1) For the staining of microtubules and intermediate filaments, the cells were fixed with cold methanol for 5 minutes, blocked for 20 minutes with PBS containing 10% calf serum to block nonspecific binding sites, and incubated at 37° C. for 90 min with monoclonal anti-β-tubulin at the dilutions recommended by the manufacturer. Bound primary antibodies were subsequently visualized by a one hour incubation with fluorescein(FITC)-conjugated sheep antimouse IgG (F-3008; Sigma). The coverslips were washed, stained with 0.1 μg/mL DAPI for 10 minutes, mounted on microscope slides and the fluorescence patterns were examined and photographed using a Zeiss Axioplan microscope equipped with epifluorescence optics for fluorescein and DAPI.
The effects of laulimalide on nuclear structure are visible: The normal rounded shape of the nucleus, which is devoid of microtubules, can be detected, whereas in laulimalide-treated cells this distinct microtubule-free area containing the discrete central nucleus was lost and only vesicle-like areas devoid of microtubules remained. […] Similar nuclear changes occurred with isolaulimalide. Paclitaxel also initiated the formation of micronuclei, as has been reported by others.
The difference between the two drugs was statistically significant at all five concentrations tested (P<0.0001).

Experiment [2] concerns SKVLB-1 cell line (P-glycoprotein-overexpressing sub-line of SK-OV-3). Put plainly: Inhibition of cell proliferation, SRB assay, multidrug-resistant SKVLB-1. Format: cell-based, human. To be noted: for IC50: Homo sapiens, read-out: IC50 for inhibition of cell proliferation; for Resistance Factor: drug-resistant SKVLB-1 versus parental SK-OV-3 IC50. Here is the method: (§2) The A-10 rat aortic smooth muscle and SK-OV-3 human ovarian carcinoma cell lines were obtained from the American Type Culture Collection (Manassas, Va.) and were cultured in BME containing 10% FBS and 50 μg/mL gentamycin sulfate. A sub-line of SK-OV-3 selected for resistance to vinblastine (SKVLB-1) was provided by Dr. Victor Ling (British Columbia Cancer Center, Vancouver, British Columbia) and was maintained in BME containing 10% FBS and 50 μg/mL gentamycin sulfate. The MDA-MB-435 human mammary adenocarcinoma cell line was obtained from Dr. Mai Higazi (Georgetown University, Washington, D.C.), and was maintained in Richters medium containing 10% FBS and 50 μg/mL gentamycin sulfate. Vinblastine was added to a final concentration of 1 μg/mL to SKVLB-1 cells 24 hours after passage to maintain selection pressure for P-glycoprotein-overexpressing cells.
(§3) The IC50 for inhibition of cell proliferation was determined by measuring cell-associated protein after drug treatment using the sulforhodamine B assay.
(§4) The early literature on laulimalide reported that it was a cytotoxin, but without specifying a mechanism. Experiments were conducted to determine the IC50 values for laulimalide and isolaulimalide in two drug-sensitive cell lines, MDA-MB-435 and SK-OV-3, and in a multidrug-resistant cell line, SKVLB-1. Cells were treated with varying concentrations of the drugs for 48 hours, and cell-associated protein was determined using the SRB assay. The IC50 for each compound was calculated for each cell line.
Background: Sulforhodamine B stains cellular protein and so reports cell mass.

Experiment [3] has as its system A-10 cells. Description: Immunofluorescence of cellular microtubules and mitotic spindles. To be noted: for sensitivity of stabilized cellular microtubules to vinblastine / morphological effects on cellular microtubules: A-10 cells; for effect on mitotic spindles: A-10 cells and SK-OV-3 cells; for morphological effects on cellular microtubules: 18 hours, laulimalide 2 μM, isolaulimalide 2-20 μM, paclitaxel 1-20 μM. The class given is cell-based, rat. The method, then: A-10 cells were grown to 70-85% confluence on glass coverslips in BME supplemented with 10% FBS. Drug compounds in PBS were added to the indicated final concentrations and cells were incubated for an additional […].
as §1
A-10 cells were treated with laulimalide, isolaulimalide, or paclitaxel for 18 hours and the morphological effects on microtubules examined by indirect immunofluorescence techniques.

Experiment [4] relates to SK-OV-3 human ovarian carcinoma cell line. Description: Inhibition of cell proliferation, SRB assay, SK-OV-3. Format: cell-based. To be noted: read-out: IC50 for inhibition of cell proliferation. The method, then: as §2, §3, §4
A further experiment deals with bovine brain tubulin. Description: Tubulin polymerization in vitro. Format: biochemical. To be noted: for effect on tubulin polymerization (in words): absence of polymerization promoters; for EC50: Table 2. The text has this:
FIG. 3 collectively is a graphic representation comparing the effects of Laulimalide and paclitaxel on tubulin polymerization, in which the polymerization of bovine brain tubulin was monitored, and in which:
One characteristic of the microtubule-stabilizing agents paclitaxel, discodermolide, epothilones A and B, and eleutherobin is the ability of these agents to initiate the polymerization of tubulin in the absence of polymerization promoters, such as glycerol. Studies were undertaken to determine the effects of laulimalide on tubulin polymerization.
Samples of the tubulin polymer formed were examined by electron microscopy to determine whether the increase in turbidity measured during the polymerization experiments was due to the formation of microtubule-like polymers or the formation of other structures.

Experiment [5] has as its system MDA-MB-435 human mammary adenocarcinoma cell line. Put plainly: Inhibition of cell proliferation, sulforhodamine B (SRB) assay, MDA-MB-435. To be noted: for IC50: Homo sapiens. Format: cell-based. Here is the method: as §2, §3, §4
In a further experiment the test system is MDA-MB-435 cells. Put plainly: Cell cycle distribution by flow cytometry. Format: cell-based, human. To be noted: MDA-MB-435, 20 nM. The method, then: FIG. 2 collectively is a graphic representation comparing the effects of Laulimalide on cell cycle distribution, wherein log phase growth cultures of MDA-MB-435 cells were treated, the cells were fixed, stained, and analyzed on a Coulter EPICS XL-MCL flow cytometer and plotted as events versus propidium iodide fluorescene intensity, and in which:
A common characteristic of anti-microtubule agents is their ability to initiate mitotic arrest. […] This is consistent with the effects of other antimicrotubule agents, where disruption of microtubule dynamics prevents normal mitotic progression and leads to mitotic arrest. […] The mitotic cells were rounded, and the spindles formed a circular pattern with spindle microtubules radiating outward from a microtubule-free core in the center of the cell. In the mitotic cells, the nuclear membranes were not apparent, and the chromatin was condensed and aligned in a circular pattern.
The ultimate mechanism of action of many cytotoxic cancer chemotherapeutic agents is the initiation of pathways of gene and protein expression leading to apoptosis. Antimicrotubule drugs including paclitaxel, vinblastine, and cryptophycin 1 initiate apoptosis both in vitro and in vivo. […] The loss of cellular DNA is detected by the appearance of the subdiploid peak when apoptotic cells are analyzed by flow cytometry. […]
For orientation: Flow cytometry measures light scatter and fluorescence of single cells or particles in a stream.

The test system of the next experiment is caspase 3 / PARP. Put plainly: Caspase 3 activation and PARP proteolysis, immunoblot of cell lysates. The class given is cell-based. The following applies: cells treated 42 and 48 hours. An excerpt: During apoptosis, specific cysteine proteases called the caspases are activated. Activation of the caspase cascade leads to the proteolytic degradation of specific cellular proteins. The activation of caspase 3 and the proteolysis of the DNA repair enzyme PARP, a downstream substrate of caspase 3, were examined in cell lysates from laulimalide-treated cells. Activation of caspase 3 leads to the loss of the 32 kDa proenzyme and the formation of the activation products p17 and p12. […] The loss of the p32 proenzyme is seen at 48 hours. The specific proteolysis of PARP by caspase 3 leads to the formation of two products, an 89 kDa COOH-terminal fragment and a 24 kDa N-terminal fragment. The proteolysis of PARP and the appearance of the 89 kDa degradation product coincided with the activation of caspase 3.
For orientation: In western blotting, separated proteins are transferred to a membrane and probed.

Experiment [6] deals with A-10 rat aortic smooth muscle cell line. Description: Inhibition of cell proliferation, A-10 nontransformed line. The class given is cell-based. The method, then:
as §2, §3
The IC50 for inhibition of proliferation was also determined in the A-10 cell line, a nontransformed line that was used to show the effects of microtubule-stabilizing agents on cellular structures. […]

Where [7] appears, read: MDA-MB-435, 48 h, read-out: IC50 for inhibition of cell proliferation.

Like-named read-outs stand apart in the source and are kept apart here.

In the case of `C=C1C[C@H](C)C[C@@H]2CC=C[C@@H](C/C=C\C(=O)OC3CC(OC3/C=C/[C@@H]3CC(C)=CCO3)[C@@H](O)[C@@H](O)C1)O2` (stereo partly drawn) [Isolaulimalide, isolaulimalide], in the experiment with A-10 cells [1], the “effect on nuclear structure” value was “formation of multiple micronuclei”. Also, in experiment [2] (SKVLB1, 48 h), the IC50 is 2650 nM. Moreover, the “Resistance Factor” value in experiment [2] is given as 1.03. In the experiment on A-10 cells [3], the “sensitivity of stabilized cellular microtubules to vinblastine” value (from here on “sensitivity”) was “resistant to vinblastine-induced depolymerization”; the “effect on mitotic spindles” value is on record as “Abnormal mitotic spindles”; the “morphological effects on cellular microtubules” value (from here on “morphological effects”) is “increase in the density of cellular microtubules, but no microtubule bundles were present”. In addition, in experiment [4] (SK-OV-3, 48 h), the IC50 stood at 2570 nM. For the same molecule, the “effect on tubulin polymerization (in words)” value in the experiment on bovine brain tubulin is “stimulated tubulin polymerization”. The IC50 in [5] (setting [7]) was determined as 1970 nM. The “IC50 values, inhibition of cell proliferation (in words)” value in [5] (cell lines of Table 1) is reported as “low μM range”.
Broadly, the EC50 is the concentration needed to bring the measured effect to its halfway point. For the molecule `C=C1C[C@H](C)C[C@@H]2CC=C[C@@H](C/C=C\C(=O)OC([C@@H](O)/C=C/[C@@H]3CC(C)=CCO3)C[C@@H]3OC3[C@@H](O)C1)O2` (stereo partly drawn) [Laulimalide, laulimalide], the “subdiploid peak (apoptosis)” value in the experiment with MDA-MB-435 cells (18 hours) was “doubling of the subdiploid peak”. In addition, in the experiment with MDA-MB-435 cells (within nine hours), the “effect on cell cycle” value is listed as “cell cycle arrest in G2-M”. In addition, the “caspase 3 activation and PARP cleavage” value in the experiment on caspase 3 / PARP was “Caspase 3 was activated and PARP proteolytically cleaved”. Moreover, in the experiment with A-10 cells [1], the “effect on nuclear structure” value was “formation of multiple micronuclei” and the cells exhibiting micronuclei entry was “approximately 60%”. Further, in experiment [2] (SKVLB1, 48 h), the IC50 was 1210 nM. Further, the “Resistance Factor” value in experiment [2] is given as 105. Also, the IC50 in [6] (A10, read-out: IC50 for inhibition of proliferation) turned out to be 51000 nM. In the experiment on A-10 cells [3], the “sensitivity” value is recorded as “resistant to vinblastine-induced depolymerization”, the “effect on mitotic spindles” value is “Abnormal mitotic spindles” and the “morphological effects” value was “bundles of short tufts of microtubules”. For the same molecule, the IC50 in experiment [4] (SK-OV-3, 48 h) is 11.5 ± 0.53 nM. For the same molecule, in the experiment on bovine brain tubulin, the “polymerization of tubulin at 0° C.” value is recorded as “Neither paclitaxel nor laulimalide promoted the polymerization”, the EC50 stood at 4320 ± 400 nM and the “effect on tubulin polymerization (in words)” value is “stimulated tubulin polymerization”. In the experiment with bovine brain tubulin (20 μM), the “kinetics of tubulin formation relative to 20 μM paclitaxel” value was “twice as fast”. Moreover, in the experiment with bovine brain tubulin (20 μM of each drug), the “additional tubulin polymer formed relative to paclitaxel” value was “approximately 30%”. The “stability of tubulin polymers formed” value in the experiment with bovine brain tubulin (cold and CaCl2) is “insensitive to cold and CaCl2-induced depolymerization”. In addition, the IC50 in experiment [5] (setting [7]) came to 5.74 ± 0.58 nM. The IC50 in experiment [5] (MDA-MB-435, read-out: IC50 values, inhibition of cell proliferation (summary of Table 1)) was in the range of 5 to 12 nM.
With `CC(=O)O[C@H]1C(=O)[C@@]2(C)[C@H]([C@H](OC(=O)c3ccccc3)[C@]3(O)C[C@H](OC(=O)[C@H](O)[C@@H](NC(=O)c4ccccc4)c4ccccc4)C(C)=C1C3(C)C)[C@]1(OC(C)=O)CO[C@@H]1C[C@@H]2O` [Paclitaxel, reference compound], the cells exhibiting micronuclei entry in the experiment on A-10 cells [1] is recorded as “approximately 40%”. Moreover, the IC50 in experiment [2] (SKVLB1, SKVLB (SKVLB-1), 48 hours, SRB, mean ± SD) was greater than 100000 nM. Moreover, the “inhibition of the SKVLB-1 cell line” value in experiment [2] (concentrations up to 100 μM) was no more than 70%. The “Resistance Factor” value in experiment [2] is given as >58,480. The IC50 in experiment [6] (A10, A-10 cell line, read-out: IC50 for inhibition of proliferation) was 40000 nM. In the experiment on A-10 cells [3], the “sensitivity” value is recorded as “resistant to vinblastine-induced depolymerization”; the “effect on mitotic spindles” value was “Abnormal mitotic spindles”; the “morphological effects” value is recorded as “formation of a highly organized array of microtubules, some of which formed thick microtubule bundles”. For the same molecule, the IC50 in experiment [4] (SK-OV-3, 48 hours, SRB, mean ± SD) was 1.71 ± 1.07 nM. Besides, in the experiment with bovine brain tubulin, the “polymerization of tubulin at 0° C.” value is listed as “Neither paclitaxel nor laulimalide promoted the polymerization” and a half-maximal response (EC50) required 1440 ± 60 nM. Besides, the IC50 in [5] (MDA-MB-435, 48 hours, SRB, mean ± SD, read-out: IC50 for inhibition of cell proliferation) was determined as 1.02 ± 0.25 nM.
